Measured values from patent EP4293019A1, “4-SUBSTITUTED (1H-BENZO[D]IMIDAZOL-2-YL)-1H-PYRAZOLES AS BUB1 INHIBITORS USEFUL FOR TREATING CANCERS” (Netherlands Translational Research Center Holding B.V., priority 2022, dated 2023).

Tests used:
hBUB1 = molecular target: T1, hBUB1 (Homo sapiens, UniProt O43683); test: hBUB1 kinase activity assay (biochemical fluorescence polarization assay, IMAP); conditions: BUB1/BUB3 3.26 nM, ATP 15 µM, BUB1/BUB3 substrate 75 nM; N=2, n=2; read-out: hBUB1 pIC50 (converted)
T1 construct: purchased Carna Biosciences 05-187
T1 sequence (O43683 whole entry): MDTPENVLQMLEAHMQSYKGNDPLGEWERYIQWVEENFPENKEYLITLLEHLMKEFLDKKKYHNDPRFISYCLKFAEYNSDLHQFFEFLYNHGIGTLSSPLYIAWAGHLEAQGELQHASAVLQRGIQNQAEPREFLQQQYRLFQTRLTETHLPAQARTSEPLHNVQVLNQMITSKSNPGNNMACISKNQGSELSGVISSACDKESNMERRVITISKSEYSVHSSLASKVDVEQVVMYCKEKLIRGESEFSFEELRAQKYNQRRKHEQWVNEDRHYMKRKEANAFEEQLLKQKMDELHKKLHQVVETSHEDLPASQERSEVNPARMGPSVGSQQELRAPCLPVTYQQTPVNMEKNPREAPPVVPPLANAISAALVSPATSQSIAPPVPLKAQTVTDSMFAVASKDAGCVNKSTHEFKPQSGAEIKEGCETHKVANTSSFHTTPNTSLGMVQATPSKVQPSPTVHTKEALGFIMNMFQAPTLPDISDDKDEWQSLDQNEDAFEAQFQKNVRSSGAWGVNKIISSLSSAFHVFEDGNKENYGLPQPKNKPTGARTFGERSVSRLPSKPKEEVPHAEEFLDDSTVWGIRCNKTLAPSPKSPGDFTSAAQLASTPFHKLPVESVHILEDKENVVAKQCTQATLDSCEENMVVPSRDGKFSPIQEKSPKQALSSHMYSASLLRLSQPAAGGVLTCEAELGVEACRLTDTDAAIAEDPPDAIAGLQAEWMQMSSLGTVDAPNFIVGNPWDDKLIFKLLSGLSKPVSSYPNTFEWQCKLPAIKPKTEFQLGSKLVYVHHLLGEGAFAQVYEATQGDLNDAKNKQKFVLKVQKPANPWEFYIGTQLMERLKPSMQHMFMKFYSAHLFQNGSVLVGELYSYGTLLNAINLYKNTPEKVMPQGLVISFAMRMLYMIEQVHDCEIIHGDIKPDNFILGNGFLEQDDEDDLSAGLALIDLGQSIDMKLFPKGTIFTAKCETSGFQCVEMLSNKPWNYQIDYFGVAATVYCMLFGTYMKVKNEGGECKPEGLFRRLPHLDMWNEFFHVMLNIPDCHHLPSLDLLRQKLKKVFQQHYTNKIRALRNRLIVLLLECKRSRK
T1 sequence (O43684 whole entry partner): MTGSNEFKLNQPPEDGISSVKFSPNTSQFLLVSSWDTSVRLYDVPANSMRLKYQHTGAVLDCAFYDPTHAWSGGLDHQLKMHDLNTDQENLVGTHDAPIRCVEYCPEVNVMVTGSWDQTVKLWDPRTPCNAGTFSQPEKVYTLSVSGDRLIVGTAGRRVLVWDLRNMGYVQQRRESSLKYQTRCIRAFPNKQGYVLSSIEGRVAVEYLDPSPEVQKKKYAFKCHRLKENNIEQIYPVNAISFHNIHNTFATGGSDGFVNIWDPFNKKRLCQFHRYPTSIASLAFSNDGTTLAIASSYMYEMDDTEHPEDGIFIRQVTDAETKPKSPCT
Description: This protocol describes how the Kinase Activity Assay was performed to determine pIC50 values of compounds of general formula (I) against hBUB1.
Assays were performed in 384-well plates (Greiner, black, flat bottom, 781076) by sequential addition (final concentrations are indicated) of inhibitor (5 µL, 0.3 nM - 1 µM or 3 nM - 10 µM), BUB1/BUB3 (5 µL, 3.26 nM, Carna Biosciences (05-187), lot: 15CBS-0644 D), ATP (5 µL, 15 µM) and BUB1/BUB3 substrate (5 µL, 75 nM, Carna Biosciences (05-187MSSU)), all as 4x working solutions. The final concentration of DMSO was 1%. Assay reactions were stopped by addition of IMAP progressive binding reagent (20 µL, 1200x diluted, Molecular Devices (R8155), lot: 3117896). Each assay included the following controls: (i) a background control (treated with vehicle instead of inhibitor and BUB1/BUB3 substrate), (ii) MIN controls (treated with 5 µM BAY1816032 (MedChem Express) as inhibitor, used as 0% BUB1 activity) and (iii) MAX controls (treated with vehicle instead of inhibitor, used as 100% BUB1 activity). All inhibitors were tested in two separate assays and all inhibitor concentrations were tested in duplicate per assay (N=2, n=2).
For each assay, assay buffer (AB) was freshly prepared and consisted of 20 mM HEPES (prepared by diluting 1 M HEPES, pH 7.2), 5 mM MgCl2, 0.01% Tween-20 and 1 mM DTT. Stocks of inhibitors (in DMSO) were diluted in AB to obtain 4x working solutions (4% DMSO) and 5 µL was added to the assay plate. BUB1/BUB3 (3.26 µM (486 µg/mL) in storage buffer) was diluted in AB to obtain 13.0 nM of which 5 µL was added to all wells of the assay plate. The assay plate was centrifuged (1 min, 200 g) and incubated at RT for 30 min. ATP (4 mM in MilliQ) was diluted in AB to obtain 60 µM of which 5 µL was added to each well. BUB1/BUB3 substrate (1 mM) was diluted in 20 mM HEPES (prepared by diluting 1 M HEPES (pH 7.2) in MilliQ) to obtain 80 µM (this solution was freshly prepared every assay) and further diluted in AB to obtain 300 nM after which 5 µL was added to each well of the assay plate except for background control wells. The assay plate was centrifuged (1 min, 200 g) and incubated at RT in the dark for 180 min. IMAP progressive binding buffer A (5x) and IMAP progressive binding buffer B (5x) were mixed in a ratio to obtain 30% buffer A and 70% buffer B, which was subsequently diluted 5x in MilliQ. IMAP progressive binding reagent was diluted 600x in aforementioned mixture of buffer A and B (to obtain a 2x working solution) of which 20 µL was added to each well of the assay plate. The assay plate was centrifuged (1 min, 200 g) and incubated at RT in the dark for 90 min. Fluorescence polarization was measured on a CLARIOstar plate reader using the following settings: (i) optic settings → excitation = F: 482-16, dichroic = F: LP 504, emission = F: 530-40, (ii) optic = top optic, (iii) speed/precision = maximum precision, (iv) focus adjustment was performed for every assay and (v) gain adjustment was done by setting the target mP value to 35 mP for one of the MIN control wells. Data was normalized between MIN and MAX controls and data was plotted using GraphPad Prism 8.0 using "Nonlinear regression (curve fit)" and "log(inhibitor) vs. normalized response - Variable slope" to determine pIC50 values.
Inhibition is indicated as pIC50 ("-" = not measured). Compounds having an activity designated as "A" provided an pIC50 ≥ 7.0 (IC50 ≤100 nM); compounds having an activity designated as "B" provided an 6.3 ≤ pIC50 < 7.0 (100 nM<IC50 ≤ 500 nM); compounds having an activity designated as "C" provided an 6.0 ≤ pIC50 < 6.3 (500 nM < IC50 ≤ 1 µM); compounds having an activity designated as "D" provided an 6.0 < pIC50 ≤ 5.0 (1 µM < IC50 ≤ 10 µM); and compounds having an activity designated as "E" provided an pIC50 < 5.0 (IC50 >10 µM).

U2OS cells = test: Cellular proliferation assay (SRB proliferation assay); assay type: cell-based; conditions: Homo sapiens, 72 h treatment, SRB staining, N=2, n=3
Description: This protocol describes how the Cellular Proliferation Assay was performed to determine pIC50 values of compounds of general formula (I) against U2OS cells.
U2OS (human osteosarcoma) cells were purchased at ATCC and were tested on regular basis for mycoplasma contamination. Cultures were discarded after 2-3 months of use. Cells were cultured at 37°C under 7% CO2 in DMEM (Sigma Aldrich, D6546) supplemented with GlutaMAX (2 mM, ThermoFisher), 10% (v/v) heat-inactivated newborn calf serum (Seradigm), penicillin and streptomycin (200 µg/mL each, Duchefa) (complete medium). Medium was refreshed every 2-3 days and cells were passaged by trypsinization twice a week at 80-90% confluence. Cell viability was assessed by Trypan Blue exclusion and cell quantification using a TC20™ Automated Cell Counter (Bio-Rad).
Assays were performed in 96-well plates (Greiner, Cellstar, 655180) by seeding (day 0), treatment (day 1) and subsequent incubation for 72 h. Cells were fixed, stained and staining was subsequently dissolved after which absorbance was measured. Each assay included the following controls: (i) a background control (to which no cells were added), (ii) t0 controls (separate assay plate in which cells were fixed on day 1, used as 0% proliferation), (iii) nontreated controls (present in each assay plate, treated with vehicle and used as 100% proliferation). Cells were treated with different concentrations of indicated inhibitor. All inhibitors were tested in two separate assays and all inhibitor concentrations were tested in triplicate per assay (N=2, n=3).
For each assay, U2OS cells from 10 cm dishes were seeded into 96-well plates (3,000 cells/well) and subsequently incubated overnight to allow for cell adherence. Stocks of inhibitor and vehicle (all in DMSO) were diluted in complete medium to obtain 2x working solutions (1% DMSO). Cell medium was replaced by fresh complete medium (50 µL), treatment was started by addition of the 2x working solutions (50 µL) and plates were incubated at 37°C for 72 h. Cell medium was replaced by fresh serum free medium (100 µL) and cells were fixed by addition of 30 µL 50% (w/v) aq. trichloroacetic acid after which the plates were incubated at 4°C for 60 min. Wells were emptied by shaking the plates upside down after which wells were washed three times with demineralized water and air-dried overnight. To each well, 60 µL of SRB solution (0.4% (w/v) in 1% aq. acetic acid) was added and plates were incubated for 30 min. The excess SRB was removed and the wells were washed three times with 1% aq. acetic acid and air-dried overnight. Bound SRB was redissolved by addition of 150 µL 10 mM TRIS (free-base) and absorbance was measured at 540 nm on a CLARIOstar plate reader. Data was normalized between t0 and nontreated controls and plotted using GraphPad Prism 8.0 using "Nonlinear regression (curve fit)" and "log(inhibitor) vs. normalized response - Variable slope" to determine pIC50 values.
Inhibition is indicated as pIC50 ("-" = not measured). Compounds having an activity designated as "A" provided an pIC50 ≥ 6.0 (IC50 ≤1 µM); compounds having an activity designated as "B" provided an 5.3 ≤ pIC50 < 6.0 (1 µM<IC50 ≤ 5 µM); compounds having an activity designated as "C" provided an 5.0 ≤ pIC50 < 5.3 (5 µM < IC50 ≤ 10 µM); compounds having an activity designated as "D" provided an 5.0 < pIC50 ≤ 4.7 (10 µM < IC50 ≤ 20 µM); and compounds having an activity designated as "E" provided an pIC50 < 4.7 (IC50 >20 µM).

IC50 (hBUB1)	IC50 (U2OS cells)	Compound
≤ 100 nM	≤ 1000 nM	COc1cnc(-c2cccc(Cl)c2F)nc1Nc1c[nH]nc1-c1nc2cc(CN3CCOCC3)ccc2[nH]1 [Compound 55, 2-(3-Chloro-2-fluorophenyl)-5-methoxy-N-(3-(5-(morpholinomethyl)-1H-benzo[d]imidazol-2-yl)-1H-pyrazol-4-yl)pyrimidin-4-amine]
≤ 100 nM	≤ 1000 nM	C#Cc1cccc(-c2ncc(OC)c(Nc3c[nH]nc3-c3nc4cc(CN5CCOCC5)ccc4[nH]3)n2)c1F [Compound 56, 2-(3-Ethynyl-2-fluorophenyl)-5-methoxy-N-(3-(5-(morpholinomethyl)-1H-benzo[d]imidazol-2-yl)-1H-pyrazol-4-yl)pyrimidin-4-amine]
≤ 100 nM	≤ 1000 nM	C#Cc1ccc(F)c(-c2ncc(OC)c(Nc3c[nH]nc3-c3nc4cc(CN5CCOCC5)ccc4[nH]3)n2)c1 [Compound 58, 2-(5-Ethynyl-2-fluorophenyl)-5-methoxy-N-(3-(5-(morpholinomethyl)-1H-benzo[d]imidazol-2-yl)-1H-pyrazol-4-yl)pyrimidin-4-amine]
≤ 100 nM	≤ 1000 nM	C#Cc1ccc(F)c(-c2ncc(OC)c(Nc3c[nH]nc3-c3nc4cc(CN5CCOCC5)ccc4[nH]3)n2)c1F [Compound 60, 2-(3-Ethynyl-2,6-difluorophenyl)-5-methoxy-N-(3-(5-(morpholinomethyl)-1H-benzo[d]imidazol-2-yl)-1H-pyrazol-4-yl)pyrimidin-4-amine]

Further lines, the compound ahead of its results:

Compound	IC50 (hBUB1)	IC50 (U2OS cells)
COc1cnc(-c2cc(Cl)ccc2F)nc1Nc1c[nH]nc1-c1nc2cc(CN3CCOCC3)ccc2[nH]1 [Compound 57, 2-(5-Chloro-2-fluorophenyl)-5-methoxy-N-(3-(5-(morpholinomethyl)-1H-benzo[d]imidazol-2-yl)-1H-pyrazol-4-yl)pyrimidin-4-amine]	≤ 100 nM	≤ 1000 nM
COc1cnc(-c2c(F)ccc(Cl)c2F)nc1Nc1c[nH]nc1-c1nc2cc(CN3CCOCC3)ccc2[nH]1 [Compound 59, 2-(3-Chloro-2,6-difluorophenyl)-5-methoxy-N-(3-(5-(morpholinomethyl)-1H-benzo[d]imidazol-2-yl)-1H-pyrazol-4-yl)pyrimidin-4-amine]	≤ 100 nM	≤ 1000 nM
COc1cnc(-c2ccc(F)cc2)nc1Nc1c[nH]nc1-c1nc2cc(CN3CCOCC3)ccc2[nH]1 [Compound 61, 2-(4-Fluorophenyl)-5-methoxy-N-(3-(5-(morpholinomethyl)-1H-benzo[d]imidazol-2-yl)-1H-pyrazol-4-yl)pyrimidin-4-amine]	100 to 501 nM	≤ 1000 nM
